From US20030035812A1, “Immune enhancement compositions and use thereof” (priority 2000, published 2003)

Assays:
Sendai virus [1] = experiment: Secretory IgA induction by Sendai virus live vaccine, trachea and bronchia wash, ELISA; type: in vivo, mouse; conditions: 500 CIU vaccine, 14 days after inoculation
Description: The administraion of provitamin and inoculation of a vaccine were performed in the same manner as in Example 1. 14 Days after the inoculation of vaccine, the mouse was sacrificed, the trachea and bronchia were twice washed with 1 ml of PBS (phosphate buffered saline), and IgA recovered in PBS was measured by the enzyme linked immunosorbent assay (ELISA).
Sendai virus was fixed on a plate and reacted with a test solution. Thereafter, peroxidase marker anti-mouse IgA immunoglobulin was reacted and then phenylenediamine 2HCl was added to cause coloration. OD 492 was measured and from the calibration curve obtained based on the standard IgA, the IgA amount in the test solution was determined.

macrophages = experiment: Number of macrophages sampled from the abdominal cavity 14 days after vaccine inoculation; type: in vivo, mouse; conditions: 500 CIU vaccine, 14 days after inoculation
Description: (§1) The administration of provitamin and inoculation of a vaccine (500 CIU) were performed in the same manner as in Example 1. 14 Days after the inoculation of the vaccine, macrophages were sampled from the abdominal cavity of the mouse and the number of macrophages was counted through a microscope. Also, the activity of the macrophage was examined as follows. Fibrosarcoma SMT-5 (target cell) and the sampled macrophages (effector cell) were mixed at a ratio of 1:7 and cultured in CO2 medium for 24 hours. 8 Hours before the completion of culture, ^3H-thymidine was added and the amount of ^3H-thymidine taken up into the residual target cells was measured by a liquid scintillation counter. From the value obtained, the activity of macrophage was determined. The amount of ^3H-thymidine in the control group was the amount of ^3H-thymidine taken up into the target cells where the macrophages were not added.

[2] = tested on: Sendai virus strongly toxic strain; experiment: Survival rate after nasal infection with Sendai virus strongly toxic strain; type: in vivo, mouse; conditions: challenge 15 LD50 at day 14, 20 days after infection
Description: The administration of provitamin and inoculation of a vaccine were performed in the same manner as in Example 1, and 14 days after the inoculation of attenuated vaccine, Sendai virus strongly toxic strain (1.7×10^7 CIU/ml) was subjected to 15-hold dilution in PBS. Subsequently, 70 μl of the dilution (about 8×10^4 CIU:15 LD50) was nasally infected to a mouse under ether anesthesia and 20 days after the infection with the strongly toxic strain, the survival rate of mice was examined.
The test solution was step-diluted and each dilution was used for a group of animals. The life and death were examined and the point of dilution degree where 50% of death was recognized was designated as LD50.

[3] = tested on: Fibrosarcoma SMT-5 (target cell); experiment: Activity of sampled macrophages against target cells (3H-thymidine uptake); type: cell-based, mouse; conditions: 500 CIU vaccine, macrophages sampled day 14, target:effector 1:7, 24 hours
Description: as §1

Sendai virus [4] = experiment: Circulating antibody unit (HIU) in serum by hemagglutination inhibition (HI) reaction after vaccine administration; type: in vivo, mouse; conditions: 500 CIU vaccine nasally
Description: The provitamins prepared to have a composition in the following Formulation Examples 1 to 4 were individually or in combination (hereinafter referred to as “provitamin”) dissolved in a phosphate buffered saline (PBS) to a concentration of 0.5% and then continuously administered perorally or peritoneally to a mouse (ICR, 3 weeks old, male) from two weeks before the administration of a vaccine. The sample was administered such that APM per day was 80 mg/kg-body weight in the case of peroral administration and the dose per day was 40 mg/kg-body weight in the case of injection.
The vaccine used here was TR-5 strain which is an attenuated strain of Sendai virus, and 500 CIU (cell infectious unit) thereof was nasally administered to a mouse under ether anesthesia. That is, a stock solution (10^6 CIU/ml) of TR-5 strain was diluted with PBS and 50 μl of each sample was nasally administered. After the administration of vaccine, the serum was sampled in aging (inoculation day, after 7 days, after 14 days and after 21 days) and the antiviral antibody unit in the serum was measured by the hemagglutination inhibition (HI) reaction which inhibits the hemagglutination (HA) reaction.
The HA reaction is a reaction where a virus particle or an HA antigen adsorbs to an erythrocyte and combines the erythrocytes with each other to cause hemagglutination. In the measurement of the HA unit, 2-fold step dilution series of a virus solution are prepared, a constant amount of erythrocytes is added to each dilution and after the passing of a predetermined time, the agglutination image is examined. The HA unit (HAU) is the reciprocal of the highest dilution number in a test tube showing agglutination positive. The HA reaction is inhibited by previously adding an antiviral antibody to the virus solution. This is the HI reaction.
To 25 μl of a serum subjected to 2-fold step dilution, 25 μl of a virus solution adjusted to 16 HAU was added and allowed to stand at room temperature for 1 hour. Subsequently, 50 μl of a 0.5% chicken erythrocyte suspension was added and allowed to stand at 4° C. for 1 hour. Thereafter, the HI unit was determined.

[5] = peroral, amount of vaccine inoculated 0 CIU
[6] = peroral, amount of vaccine inoculated 50 CIU
[7] = peroral, amount of vaccine inoculated 500 CIU
[8] = peritoneal administration of provitamin 40 mg/kg per day, day 0
[9] = peritoneal administration of provitamin 40 mg/kg per day, day 7
[10] = peritoneal administration of provitamin 40 mg/kg per day, day 14
[11] = peritoneal administration of provitamin 40 mg/kg per day, day 21
[12] = peroral administration of provitamin 80 mg/kg per day, day 0 after inoculation
[13] = peroral administration of provitamin 80 mg/kg per day, day 7
[14] = peroral administration of provitamin 80 mg/kg per day, day 14
[15] = peroral administration of provitamin 80 mg/kg per day, day 21

SMILES: O=C1O[C@H]([C@@H](O)CO)C(O)=C1OP(=O)(O)O [Formulation Example 1, L-ascorbic acid-2-monophosphate]
- IgA (Sendai virus [1]; peritoneal route): 69 U/μg
- IgA (Sendai virus [1]; peroral route): 51 U/μg
- Macrophage/Body (macrophages; peritoneal route): 9.1 × 10^6
- Macrophage/Body (macrophages; peroral route): 6.8 × 10^6
- Survival Rate ([2]; peritoneal, amount of vaccine inoculated 0 CIU): 0/10
- Survival Rate ([2]; peritoneal, amount of vaccine inoculated 50 CIU): 8/10
- Survival Rate ([2]; peritoneal, amount of vaccine inoculated 500 CIU): 8/10
- Survival Rate [2, 5]: 0/10
- Survival Rate [2, 6]: 9/10
- Survival Rate [2, 7]: 9/10
- Macrophage Activity ([3]; peritoneal route): 22.1
- Macrophage Activity ([3]; peroral route): 20.5
- HIU (Sendai virus [4]; [8]): <16 HIU
- HIU (Sendai virus [4]; [9]): 16 HIU
- HIU (Sendai virus [4]; [10]): 32 HIU
- HIU (Sendai virus [4]; [11]): 64 HIU
- HIU (Sendai virus [4]; [12]): <16 HIU
- HIU (Sendai virus [4]; [13]): <16 HIU
- HIU (Sendai virus [4]; [14]): 16 HIU
- HIU (Sendai virus [4]; [15]): 64 HIU

SMILES: O=C1O[C@H]([C@@H](O)CO)C(O)=C1OP(=O)(O)O [Formulation Example 2, L-ascorbic acid-2-monophosphate]
- IgA (Sendai virus [1]; peroral route): 69 U/μg
- Macrophage/Body (macrophages; peroral route): 6.5 × 10^6
- Survival Rate [2, 5]: 1/10
- Survival Rate [2, 6]: 9/10
- Survival Rate [2, 7]: 10/10
- Macrophage Activity ([3]; peroral route): 20.2
- HIU (Sendai virus [4]; [8]): <16 HIU
- HIU (Sendai virus [4]; [9]): <16 HIU
- HIU (Sendai virus [4]; [10]): 32 HIU
- HIU (Sendai virus [4]; [11]): 64 HIU
- HIU (Sendai virus [4]; [12]): <16 HIU
- HIU (Sendai virus [4]; [13]): <16 HIU
- HIU (Sendai virus [4]; [14]): 16 HIU
- HIU (Sendai virus [4]; [15]): 64 HIU
